According to patent US7795386B2, “Peptides comprising an isoDGR motif” (Molmed SpA, priority 2004, dated 2010):
Read-outs that look alike come from different tables or passages of the source. Values belong to the compound of their own block, whether it stands above or below them. *1 amine or outer side, *2 acyl side, *3 side chain or, on linkers, in order; H or OH if unused. Where a SMILES comes first, the peptide text is derived from it. Bridges are numbered along the chain shown (N, C = ends). [ ]: non-standard residue; d: D form. βAsp = O=C(O)[C@H](CC(=O)[*:2])N[*:1]

How the values were obtained:
[1] = stability / deamidation kinetics of peptides by RP-HPLC; assay type: physicochemical; details: for stability under integrin binding assay conditions: assay conditions of competitive binding
Protocol: RP-HPLC analysis of NGR-pep and its synthetic deamidation products (DGR-pep and isoDGR-pep) before and after incubation for 4 h at 37° C. in 0.1 M ammonium bicarbonate buffer, pH 8.5 (A and B) and in DMEM, pH 7.3 (A, inset). RP-HPLC was performed on a C-18 column (PepMap C18, PerSeptive Biosystem) as follows: buffer A, 0.1% trifluoroacetic acid (TFA) in water; buffer B, 95% acetonitrile, 0.1% TFA; 0% B for 10 min, linear gradient 20-40% B in 30 min, 100% B for 10 min; 0% B for 15 min (flow rate, 0.5 ml/min). Peak 1, 2 and 3 were identified by spiking the NGR-pep, after 2 h of incubation, with equal amount of the indicated peptide (C). NGR-pep (peak 1) rapidly converts to compounds corresponding to DGR-pep (peak 2) and isoDGR-pep (peak 3) (half-life, 2-4 h).
The stability of NGR and the kinetics of LisoDGR or DDGR formation at pH 7.3 (DMEM) and pH 8.5 (ammonium bicarbonate), were then investigated. To this aim the CNGRCGVRY (SEQ ID NO: 42) peptide (called NGR-pep) was synthesized and analyzed by reverse-phase HPLC, before and after incubation at 37° C. Residues GVRY (SEQ ID NO: 72) were added to the C-terminus of CNGRC (SEQ ID NO: 6) to enable column adsorption. In addition five peptides called, DGR-pep, D-DGR-pep, isoDGR-pep, D-isoDGR and SGR-pep, corresponding to the same sequence of NGR-pep except for the presence of D, D-D, L-isoD, D-isoD and S, respectively in place of N were prepared. The half-life of NGR-pep at pH 7.3 and 8.5, estimated from the height of the main chromatographic peak (peak 1), was about 4 and 2 h, respectively (FIG. 5A, inset). Peptides corresponding to deamidation products were stable under these conditions (FIG. 5B).
To identify peaks and to verify that the measured half-life correspond to Asn deamidation, and not to other structural changes, we analyzed heat-treated NGR-pep peptide spiked with fresh NGR-pep, or DGR-pep or isoDGR-pep peptides.

[2] = target: T1, αvβ3 (Homo sapiens, UniProt P05106+P06756); assay: IC50 (μM)
T1 construct: purchased Immunological Sciences
Source text: Table printed on a drawing sheet, Figure 7
Head of the field: IC50 (μM)
The patent's description of the figure: FIG. 7 Competitive binding of NGR-TNF to αvβ3 with NGR-pep and its deamidated products to αvβ3.
First copying reader's note: Legend table of panel A (inhibition of bio-NGR-TNF binding to αvβ3): the first three body rows belong to the upper plot and the last five to the lower plot, which prints no head of its own; the plot marker symbols are left out.
Where the first naming reader finds the target: description_of_the_figure: FIG. 7 Competitive binding of NGR-TNF to αvβ3 with NGR-pep and its deamidated products to αvβ3.

[3] = tested on: EA.hy926 cells; assay: EA.hy926 cell adhesion assay on coated microtiter plates; assay type: cell-based, human; details: for EA.hy926 cell adhesion to coated product after heat-treatment: 0.1 M ammonium bicarbonate buffer, pH 8.5, 16 h at 37° C.; for EA.hy926 cell adhesion to coated product: before heat treatment
Protocol: Adhesion of EA.hy926 cells to microtiter plates coated with various peptides and proteins before and after accelerated aging. Accelerated aging was performed by peptide incubation in 0.1 M ammonium bicarbonate buffer, pH 8.5, for 16 h at 37° C. (“heat-treatment”). Adhesion to: recombinant FN-I4-5 or control protein (FN-I4-5 (SGS)) (A), synthetic FN-I5 (B), recombinant CNGRC-TNF, CNGRC-TNF1-11 and control CARAC-TNF1-11 peptide (C), CDGRC-TNF (D). Heat-treated (37° C.) and untreated (−20° C.) products were adsorbed onto the plastic surface of microtiter wells (overnight at 4° C.). Microphotograph of wells coated with 30 μg/ml of heat-treated FN-I5 or BSA (B, right) or with 10 μg/ml of recombinant CNGRC-TNF or CDGRC-TNF (C, right), ×200. Cell adhesion assay was carried out as described in Materials and Methods. The TNF fusion constructs, including the TNF1-11 fusion constructs, were made as described Materials and Methods, and include a “G” linker.
Untreated and “heat treated” fibronectin fragments, peptides and peptide-TNF conjugates were diluted at the desired concentration with 150 mM sodium chloride, 50 mM sodium phosphate, pH 7.3, and added to 96-well polyvinyl chloride microtiter plates (Falcon, Becton Dickinson). After overnight incubation at 4° C., the plates were washed, seeded with EA.hy926 cell in DMEM containing 0.1% BSA (40000 cells/well) and left to incubate for 2-3 h at 37° C., 5% CO2. Adherent cells were fixed and stained with crystal violet as described (Curnis et al., 2005).

[4] = tested on: L-M mouse fibroblasts; assay: standard cytolytic assay with L-M mouse fibroblasts; assay type: cell-based; details: in vitro, L-M murine fibroblasts
Source text: Protein purity and identity were checked by SDS-PAGE, electrospray mass spectrometry and gel-filtration chromatography.
The cDNA coding for DGR-TNF (mouse TNF fused with the C-terminus of CDGRCG (SEQ ID NO: 24)) was obtained by PCR on NGR-TNF plasmid, using the following primers: 5′ […] 3′ (SEQ ID NO: 43) (5′ primer); 5′ […] ′3 (SEQ ID NO: 44) (3′ primer). Both primers were designed to allow the directional cloning into a pET101/D-TOPO plasmid expression kit (Invitrogen). The underlined sequence in 5′ primer contains the sequence necessary to enable the directional cloning and the initial translation codon whereas the 3′ primer contains the stop codon (underlined). The PCR reaction and the cloning procedure were performed as recommended by the manufacturer's instruction. […] The column was washed extensively 100 mM Tris-HCl buffer containing pH 8.0, loaded with DGR-TNF crude extract, diluted in 20 mM Tris-HCl buffer conatining 2 mM EDTA pH 8.0, and desorbed by elution with 7 M urea, 100 mM Tris-HCl, pH 8.0. DGR-TNF was then refolded as described (1). Briefly, the denatured products were dialyzed against 2.33 M urea, 100 mM Tris-HCl, pH 8.0 at 4° C. (140 min), followed by 1.55 M urea, 100 mM Tris-HCl, pH 8.0 (140 min), and 1 M urea, 100 mM Tris-HCl, pH 8 (140 min). Finally the products were dialyzed against 100 mM Tris-HCl, pH 8.0 (48 h). The products were centrifuged at 13000×g (10 min, 4° C.) and concentrated by ultra-filtration through a 10 KDa cut-off filter. All solutions used in the purification and refolding steps were prepared with sterile and endotoxin-free water (S.A.L.F. Laboratorio Farmacologico SpA, Bergamo, Italy). Protein concentration was measured using the BCA Protein Assay Reagent (Pierce, Rockford, Ill.). Protein purity and identity were checked by SDS-PAGE, electrospray mass spectrometry (ESI-MS) and analytical gel-filtration chromatography.

[5] = target: T2, αvβ3 integrin (Homo sapiens, UniProt P05106+P06756); assay: competitive binding of biotinylated FN-I5/streptavidin-peroxidase complexes to αvβ3-coated plates; details: in words, FIG. 6C
T2 construct: purchased Immunological Sciences
Protocol: (C) Competitive binding of biotinylated FN-I5/streptavidin-peroxidase complexes to αvβ3-coated plates with various amounts of FN-I4-5 or FN-I4-5SGS (upper panel or peptides corresponding to the NGR loop (residues 258-271) of FN-I5 before and after heat treatment (lower panel).
Binding of biotinylated peptides (CNGRC (SEQ ID NO: 6)-TNF1-11, CARAC (SEQ ID NO: 36)-TNF1-11 and FN-I5) to purified integrins was studied using streptavidin-peroxidase conjugate complexes. Complexes were prepared by mixing various quantities (0.5-1 μg) of heat-treated biotinylated peptides in DPBS containing 3% BSA with 0.03 units of streptavidinperoxidase (binding capacity: 1 μg of biotin/unit of streptavidin-peroxidase) (final volume 15 μl). Complexes were diluted in 3% BSA-DPBS (1:500), added to microtiterplates coated with integrins as described above, and incubated for 2 h at room temperature. After washing with DPBS, bound peroxidase was detected by chromogenic reaction as described above. Each assay was carried out in triplicate.
The binding of heat-treated FN-I5, CNGRC (SEQ ID NO: 6)-TNF and short peptides to purified αvβ3, αvβ5, α5β1 and α1β1 integrins was then investigated by direct and competitive ELISA with integrins adsorbed on microtiterplates.

T2 sequence (P06756 31-889 limits assumed): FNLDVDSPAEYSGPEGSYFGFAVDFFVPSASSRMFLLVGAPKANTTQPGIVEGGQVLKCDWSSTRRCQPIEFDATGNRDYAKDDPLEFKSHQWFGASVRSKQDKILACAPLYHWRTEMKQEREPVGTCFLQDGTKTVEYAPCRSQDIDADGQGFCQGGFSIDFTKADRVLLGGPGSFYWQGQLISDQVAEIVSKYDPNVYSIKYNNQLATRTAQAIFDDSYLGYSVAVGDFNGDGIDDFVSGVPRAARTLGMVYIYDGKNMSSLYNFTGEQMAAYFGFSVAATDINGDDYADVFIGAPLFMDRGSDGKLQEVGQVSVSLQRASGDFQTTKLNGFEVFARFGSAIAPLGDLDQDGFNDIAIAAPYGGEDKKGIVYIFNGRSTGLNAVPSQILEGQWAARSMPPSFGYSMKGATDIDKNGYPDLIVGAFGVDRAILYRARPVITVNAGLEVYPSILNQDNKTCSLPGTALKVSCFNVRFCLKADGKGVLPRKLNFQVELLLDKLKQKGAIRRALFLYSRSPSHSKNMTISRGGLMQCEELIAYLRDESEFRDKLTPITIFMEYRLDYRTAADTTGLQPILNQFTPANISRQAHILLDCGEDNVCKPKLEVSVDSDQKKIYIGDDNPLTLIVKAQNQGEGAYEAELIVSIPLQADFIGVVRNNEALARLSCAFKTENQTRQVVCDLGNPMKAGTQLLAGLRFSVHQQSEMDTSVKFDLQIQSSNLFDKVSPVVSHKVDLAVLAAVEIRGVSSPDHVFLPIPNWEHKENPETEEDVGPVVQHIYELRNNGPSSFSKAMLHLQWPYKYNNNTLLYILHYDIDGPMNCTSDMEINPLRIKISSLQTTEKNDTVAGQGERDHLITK
T2 sequence (P06756 891-1048 partner limits assumed): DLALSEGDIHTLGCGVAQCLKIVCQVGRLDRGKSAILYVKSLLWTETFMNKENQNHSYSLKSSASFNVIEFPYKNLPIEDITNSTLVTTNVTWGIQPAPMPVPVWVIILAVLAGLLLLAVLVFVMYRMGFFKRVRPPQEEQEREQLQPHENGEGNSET
T2 sequence (P05106 27-788): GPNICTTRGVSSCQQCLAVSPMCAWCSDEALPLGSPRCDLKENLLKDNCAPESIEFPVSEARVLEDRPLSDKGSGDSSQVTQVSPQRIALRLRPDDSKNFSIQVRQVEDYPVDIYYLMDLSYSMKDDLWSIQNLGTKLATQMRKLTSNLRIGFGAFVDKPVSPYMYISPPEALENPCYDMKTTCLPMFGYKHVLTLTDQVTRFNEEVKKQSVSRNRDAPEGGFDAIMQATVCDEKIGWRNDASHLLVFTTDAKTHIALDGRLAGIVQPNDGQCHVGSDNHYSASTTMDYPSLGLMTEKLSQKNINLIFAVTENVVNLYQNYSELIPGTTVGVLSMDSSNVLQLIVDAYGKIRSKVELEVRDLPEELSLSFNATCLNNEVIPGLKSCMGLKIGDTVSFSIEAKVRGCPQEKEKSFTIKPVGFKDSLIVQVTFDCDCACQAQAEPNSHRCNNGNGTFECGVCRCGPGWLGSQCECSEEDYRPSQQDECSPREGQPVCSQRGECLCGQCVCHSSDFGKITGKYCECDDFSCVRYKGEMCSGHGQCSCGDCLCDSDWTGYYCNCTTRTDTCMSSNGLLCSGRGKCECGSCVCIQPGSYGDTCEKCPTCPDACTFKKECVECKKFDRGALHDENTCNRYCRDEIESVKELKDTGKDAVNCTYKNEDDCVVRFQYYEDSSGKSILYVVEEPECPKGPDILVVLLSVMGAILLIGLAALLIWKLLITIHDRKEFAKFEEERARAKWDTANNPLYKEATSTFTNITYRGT
T1 sequence (P05106 27-788 limits assumed): as the sequence (P05106 27-788) above
T1 sequence (P06756 31-889 limits assumed): as the sequence (P06756 31-889 limits assumed) above
T1 sequence (P06756 891-1048 limits assumed): as the sequence (P06756 891-1048 partner limits assumed) above

Compound: CC(C)[C@H](NC(=O)CNC(=O)[C@@H]1CSSC[C@H](N)C(=O)N[C@H](CC(=O)O)C(=O)NCC(=O)N[C@@H](CCCNC(=N)N)C(=O)N1)C(=O)N[C@@H](CCCNC(=N)N)C(=O)N[C@@H](Cc1ccc(O)cc1)C(=O)O [DDGR-pep] (H-C[dD]GRCGVRY-OH; disulfide 1-5 (inferred); N-terminus and C-terminus assumed)
stability under integrin binding assay conditions [1]: stable

Compound: CC(C)[C@H](NC(=O)CNC(=O)[C@@H]1CSSC[C@H](N)C(=O)N[C@@H](CC(=O)O)C(=O)NCC(=O)N[C@@H](CCCNC(=N)N)C(=O)N1)C(=O)N[C@@H](CCCNC(=N)N)C(=O)N[C@@H](Cc1ccc(O)cc1)C(=O)O [DGR-pep] (H-CDGRCGVRY-OH; disulfide 1-5; N-terminus and C-terminus assumed)
IC50 [2]: 60 µM

Compound: CC(C)[C@H](NC(=O)CNC(=O)[C@@H]1CSSC[C@H](N)C(=O)N[C@@H](CC(N)=O)C(=O)NCC(=O)N[C@@H](CCCNC(=N)N)C(=O)N1)C(=O)N[C@@H](CCCNC(=N)N)C(=O)N[C@@H](Cc1ccc(O)cc1)C(=O)O [NGR-pep, CNGRCGVRY] (H-CNGRCGVRY-OH; disulfide 1-5; N-terminus and C-terminus assumed)
IC50 [2]: 25 µM
stability when stored in water ([1]; 37° C., water): stable for more than one week
half-life ([1]; ammonium bicarbonate buffer and DMEM, 37° C., pH 8.5 ammonium bicarbonate and DMEM pH 7.3 (FIG. 5 legend), read-out: half-life of conversion to DGR-pep and isoDGR-pep): 2 to 4 h
half-life ([1]; ammonium bicarbonate buffer, pH 8.5 (0.1 M ammonium bicarbonate), 37° C., read-out: half-life (height of main chromatographic peak) (converted)): ~2 h
half-life ([1]; pH 7.3 (DMEM), 37° C., read-out: half-life (height of main chromatographic peak) (converted)): ~4 h

Compound: CC(C)[C@H](NC(=O)CNC(=O)[C@@H]1CSSC[C@H](N)C(=O)N[C@H](C(=O)O)CC(=O)NCC(=O)N[C@@H](CCCNC(=N)N)C(=O)N1)C(=O)N[C@@H](CCCNC(=N)N)C(=O)N[C@@H](Cc1ccc(O)cc1)C(=O)O [isoDGR-pep] (H-C[βAsp]GRCGVRY-OH; disulfide 1-5 (inferred); N-terminus and C-terminus assumed)
stability under integrin binding assay conditions [1]: stable

Compound: Cys-Asp-Gly-Arg-Cys-Gly-(SEQ ID NO: 24)TNF [CDGRC-TNF]
EA.hy926 cell adhesion to coated product after heat-treatment [3]: completely inactive
EA.hy926 cell adhesion to coated product [3]: completely inactive
Cytolytic Activity [4]: 2.59 (±0.69)×10^8 U/mg
Cytolytic Activity ([4]; listed as DGR-TNF): 2.5×10^8 U/mg

The next lines start with results.

IC50 [2]: > 1000 µM
Compound: CC(C)[C@H](NC(=O)CNC(=O)[C@@H]1CSSC[C@H](N)C(=O)N[C@@H](CO)C(=O)NCC(=O)N[C@@H](CCCNC(=N)N)C(=O)N1)C(=O)N[C@@H](CCCNC(=N)N)C(=O)N[C@@H](Cc1ccc(O)cc1)C(=O)O [SGR-pep] (H-CSGRCGVRY-OH; disulfide 1-5; N-terminus and C-terminus assumed)

competition of the binding of FN-I5 to αvβ3 [5]: could compete
Compound: FN-I4-5: recombinant human fibronectin 4-5th type I repeats, residue 184-273, His-tag at the N-terminus
EA.hy926 cell adhesion to coated product after heat-treatment [3]: increase of cell adhesion
EA.hy926 cell adhesion to coated product [3]: promoted cell adhesion

competition of the binding of FN-I5 to αvβ3 [5]: Binding competition was observed
Compound: Loop-GNGRG: peptide corresponding to the NGR loop of FN-I5 (LQCISTGNGRGEWKCE)

competition of the binding of FN-I5 to αvβ3 [5]: not
Compound: Loop-RGGNG: control loop peptide of FN-I5 with scrambled sequence at the GNGRG site (LQCISTRGGNGEWKCE) [reference compound]
